Source: patent publication US4999372A, “New aminochromanol compounds” (ADIR et Compagnie, priority 1988, dated 1991)
Like-named read-outs stand apart in the source and are kept apart here.

How the values were obtained:
aorta of the rat [1] = experiment: Reactivity of rat aortic rings to 4-aminopyridine (4 AP); type: cell-based; settings: 4 AP 5 mM
Description: (§1) Male Wistar rats (325-375 g) are anaesthetised i.p. using sodium pentobarbital (30 mg/kg). The thoracic aorta and the mesenteric portal vein are removed. The aorta is dissected into rings 3 mm long and the endothelium is removed mechanically.
(§2) The organs are placed in a 20 ml thermostatically controlled vessel containing a physiological solution composed of (mM): NaCl 112; KCl 5; KH2 PO4 1; MgSO4 1.2; CaCl2 2.5; NaHCO3 25; glucose 11.5; EDTA 0.1; pH: 7.4; 37° C.; 95% O2 +5% CO2.
(§3) The initial force applied is 2 g in the case of the aorta and 0.5 g in the case of the portal vein. The variations in force are measured by a STATHAM sensor connected to a transducer amplifier (GOULD) and are monitored continuously on a GOULD 2400 graphic recorder.
(§4) The experimental protocols are as follows: After a stabilisation period of 90 minutes, the aortic rings are subjected to various tests:
reactivity to 4-aminopyridine (4 AP)
The product to be tested, at a given concentration, or its solvent, is incubated in the normal physiological solution 15 minutes before the addition of the 4 AP (5 mM).
The maximum amplitudes of the responses to the 4 AP in the presence of the product or the solvent are compared.
(§5) The products are used in a form dissolved in water or a suitable solvent.
(§6) The concentrations expressed refer to the final concentrations in terms of base in the isolated organ baths.

anaesthetised dog = experiment: Haemodynamic study in the anaesthetised dog (vascular resistances), i.v.; type: in vivo; settings: 10 μg/kg
Description: A complete haemodynamic study was carried out on mongrel dogs weighing from 25 to 30 kg, which were anaesthetised with sodium pentobarbital 30 mg/kg i.v., intubated and ventilated and subjected to a thoracotomy at the 5th left intercostal space. The measurement of the […] is carried out using electromagnetic rings positioned at the level of the ascending aorta and the circumflex branch of the left coronary artery, respectively, and connected to GOULD SP 2202 electromagnetic flow meters. The aortic pressure is measured by a MILLAR probe introduced via the femoral artery.
The total peripheral vascular resistance values (TPR) and the mean coronary vascular resistance values (CVRM) are calculated by the ratio between the mean aortic pressure and the mean cardiac output and the mean coronary output, respectively. The products tested were injected via the femoral vein in a form dissolved in water or a suitable solvent.
The evolution of the vascular resistances, expressed as percentage variation with respect to the control values, is presented as a function of time in the following Table.

[2] = tested on: spontaneously hypertensive rat (SHR); experiment: Arterial pressure in the conscious spontaneously hypertensive rat (SHR), oral; type: in vivo
Description: The study is carried out on SHR male rats (Charles River) weighing from 260 g to 330 g and aged from 18 to 20 weeks. A polyethylene catheter is positioned at the level of the abdominal aorta and tunnelised at the level of the neck under anaesthesia (ketamine hydrochloride 150 mg/kg intraperitoneally). The animals, placed in movement-restraining cages, are tested in the conscious state at least 48 hours after intervention. The arterial pressure, measured by a STATHAM P23 pressure sensor connected to the abdominal catheter, is registered on a GOULD 2400 recorder. […] The doses administered are expressed in mg/kg of base.
The results obtained with a certain number of representative products of the invention and a reference product, CROMAKALIM, are grouped in the following Table. The variations in systolic and diastolic arterial pressure (PAS and PAD) presented at the most significant times after treatment are expressed as percentage variation with respect to the control values.

aorta of the rat [3] = experiment: Relaxation of rat aortic rings contracted by potassium depolarisation (KCl); type: cell-based; settings: rat aorta rings without endothelium
Description: as §1, §2, §3, §4
potassium depolarisation:
The preparations are exposed to a 30 mM or 80 mM KCl (and 87 and 37 mM NaCl, respectively) hyperpotassium medium; after 30 minutes' stabilisation of contraction, cumulative concentrations of the product to be tested are added every 15 minutes. The relaxation values obtained allow the IC50 s to be calculated.
as §5, §6

[4] = tested on: conscious renally hypertensive dog; experiment: Arterial pressure in the conscious renally hypertensive dog; type: in vivo; settings: gastric intubation, 0.1 mg/kg
Description: Mongrel dogs weighing from 20 to 25 kg are used. A silastic catheter positioned under anaesthesia (sodium pentobarbital 30 mg/kg i.v.) at the level of the abdominal aorta and left over a prolonged period permits the later measurement of the arterial pressure in the conscious animals. Arterial hypertension is induced by a second intervention under anaesthesia consisting in a constriction of the left renal artery using a clip, which reduces its rate of flow by approximately 70%, the left kidney is enveloped in a latex capsule and the contralateral kidney is left in place.
The systolic and diastolic arterial pressures (PAS and PAD) are measured using a STATHAM P23 pressure sensor connected to the silastic catheter and linked to a GOULD pressure amplifier. The products are tested on the animals, which have become hypertensive, in the conscious state, at least one week after the second intervention. The arterial pressure is monitored continuously on an ES1000 GOULD recorder until 7 hours have elapsed after the treatment and then until 24 hours have elapsed.
The products to be tested are administered via the digestive system, after gastric intubation, in a form dissolved in water or a suitable solvent. The doses administered are expressed in mg of base with respect to body weight.
The representative products of the invention were compared with the reference product (CROMAKALIM). The variations in the systolic and diastolic arterial pressures (PAS and PAD), presented at the most significant times after treatment, are expressed as percentage variation with respect to the control values.

guinea pig = experiment: Bronchospasm produced by a histamine aerosol at 4%, compound i.v.; type: in vivo; settings: 0.30 mg/kg i.v.
Description: The bronchodilating activity has been studied in the guinea pig by the method of H. KONZETT and R. ROSSLER, Arch. Exp. Path. U. Pharm. 195, 71 (1940).
For example, the bronchospasm produced in the guinea pig by a histamine aerosol et 4% is inhibited of 96% by the compound of Example 1 B form, at the dose of 0.30 mg/kg i.v., and of 100% by the compound of Example 24 B form, at the dose of 0.35 mg/kg i.v.

`CC1(C)Oc2ccc(C#N)cc2C(N2C(=O)CC[C@H]2CO)C1O` (single isomer, unassigned) [Example 1 form B, 3R,4S- or 3S,4R-trans-2,2-dimethyl-3-hydroxy-4-(2-oxo-5S-hydroxymethyl-1-pyrrolidinyl)-6-cyanochroman] was tested, and the “% inhibition of the response to 4AP” value (aorta of the rat [1]; product 3 × 10^-6 M) was 18%, the “% inhibition of the response to 4AP” value (aorta of the rat [1]; product 10^-5 M, listed as Ex. 1 Form B) was 77% and the “Variation (%) of CVRM after treatment” value (anaesthetised dog; 1 min) was -69.4%. The “Variation (%) of TPR after treatment” value (anaesthetised dog; 1 min) was -45.9%, the “Variation (%) of CVRM after treatment” value (anaesthetised dog; 10 min) was -62.0% and the “Variation (%) of TPR after treatment” value (anaesthetised dog; 10 min) was -35.1%. The “Variation (%) of CVRM after treatment” value (anaesthetised dog; 30 min) was -43.7%, the “Variation (%) of TPR after treatment” value (anaesthetised dog; 30 min) was -35.1% and the “Variation (%) of PAD after treatment” value ([2]; 0.3 mg/kg, 1 H) was -36 ± 4%. For the same compound, the “Variation (%) of PAS after treatment” value ([2]; 0.3 mg/kg, 1 H) was -27 ± 4%, the “Variation (%) of PAD after treatment” value ([2]; 0.3 mg/kg, 3 H) was -35 ± 4% and the “Variation (%) of PAS after treatment” value ([2]; 0.3 mg/kg, 3 H) was -25 ± 3%. The “Variation (%) of PAD after treatment” value ([2]; 0.3 mg/kg, 6 H) was -40 ± 4%, the “Variation (%) of PAD after treatment” value ([2]; 0.3 mg/kg, 30 min) was -34 ± 6% and the “Variation (%) of PAS after treatment” value ([2]; 0.3 mg/kg, 30 min) was -27 ± 5%. The “Variation (%) of PAD after treatment” value ([2]; 1.0 mg/kg, 1 H) was -54 ± 2%, the “Variation (%) of PAS after treatment” value ([2]; 1.0 mg/kg, 1 H) was -44 ± 1% and the “Variation (%) of PAD after treatment” value ([2]; 1.0 mg/kg, 3 H) was -46 ± 6%. The “Variation (%) of PAS after treatment” value ([2]; 1.0 mg/kg, 3 H) was -40 ± 2%, the “Variation (%) of PAD after treatment” value ([2]; 1.0 mg/kg, 6 H) was -46 ± 4% and the “Variation (%) of PAS after treatment” value ([2]; 1.0 mg/kg, 6 H) was -36 ± 3%. The “Variation (%) of PAD after treatment” value ([2]; 1.0 mg/kg, 30 min) was -48 ± 5%, the “Variation (%) of PAS after treatment” value ([2]; 1.0 mg/kg, 30 min) was -42 ± 2% and the IC50 (aorta of the rat [3]; 30 mM KCl, listed as Ex. 1 Form B, read-out: IC50 (M) KCl 30 mM) was 3.4e-07 M. For the same compound, the IC50 (aorta of the rat [3]; 80 mM KCl, read-out: IC50 (M) KCl 80 mM) was over 0.0001 M, the “Variation (%) of PAD after treatment” value ([4]; 1 H) was “+5%” and the “Variation (%) of PAS after treatment” value ([4]; 1 H) was “+2%”. For the same compound, the “Variation (%) of PAD after treatment” value ([4]; 3 H) was -50%, the “Variation (%) of PAS after treatment” value ([4]; 3 H) was -55% and the “Variation (%) of PAD after treatment” value ([4]; 7 H) was -68%. The “Variation (%) of PAS after treatment” value ([4]; 7 H) was -76%, the “Variation (%) of PAD after treatment” value ([4]; 24 H) was -27% and the “Variation (%) of PAS after treatment” value ([4]; 24 H) was -24%. The “Variation (%) of PAD after treatment” value ([4]; 30 min) was 0%, the “Variation (%) of PAS after treatment” value ([4]; 30 min) was 0% and the “Inhibition of the bronchospasm produced by a histamine aerosol at 4%” value (guinea pig) was 96%.
